The values below come from patent US20220213099A1, “PRODRUG COMPOUNDS” (BRISTOL-MYERS SQUIBB COMPANY, priority 2019, published 2022).

Molecules are shown by their SMILES. Converted amounts (≈) assume the structure as drawn. Where a name gives a salt, the structure may show the parent alone. Read-outs that look alike come from different tables or passages of the source.

A short description of data set [1]: Solubility evaluation in aqueous buffer. The format is physicochemical. The note with it: about 24 hours equilibration; for solubility: aqueous buffer, 25 °C, thermodynamic from solid. The procedure: The solid powder of an individual prodrug was equilibrated in aqueous buffers of pH 1, 4 and 6.5 at 25° C. for about 24 hours. After equilibration, the excess solid was separated by filtration using 0.45 μm membrane filter and the filtrate was collected in suitable glass vial. The filtrate was diluted appropriately using respective buffers/diluent and analyzed by a reversed phase LC method with UV detection.

The nature of data set [2]: Stability evaluation in aqueous buffer. The format is physicochemical. Particulars: about 50 μg/mL, about 15% v/v acetonitrile; for half-life: aqueous buffer, 37° C. The protocol:
The stability study of an individual prodrug was conducted with about 50 μg/mL solutions in aqueous buffers of pH 1 (0.1 M HCl), 4 (acetate buffer) and 6.5 (phosphate buffer) at 37° C. for 24 hours. About 15% v/v acetonitrile was used in these pH buffers as a co-solvent to obtain clear solutions of prodrugs. The sample analysis was carried out using a generic reversed phase liquid chromatographic (LC) method with UV detection. The area percent (AP) loss of the prodrug peak was quantified as a function of time. The appearance of parent peak was identified from the chromatographic retention time. The half-life (t1/2, h) of the prodrug was calculated by using a pseudo-first order equation from a AP loss vs time plot.

Setting [3] is: pH 1, simulated gastric fluid, aqueous buffer pH 1, 25° C., read-out: Solubility (mg/mL) at 25° C. pH 1.
The mark [4] stands for this setting: pH 4, aqueous buffer, aqueous buffer pH 4, 25° C., read-out: Solubility (mg/mL) at 25° C. pH 4.
Where [5] appears, read: pH 1, pH 1 (0.1 M HCl), read-out: Stability (t1/2, h) at 37° C. pH 1 (converted).
[6] abbreviates: pH 4, pH 4 (acetate buffer), read-out: Stability (t1/2, h) at 37° C. pH 4 (converted).
The mark [7] stands for this setting: pH 6.5, pH 6.5 (phosphate buffer), read-out: Stability (t1/2, h) at 37° C. pH 6.5 (converted).
Where [8] appears, read: pH 6.5, aqueous buffer, aqueous buffer pH 6.5, 25° C., read-out: Solubility (mg/mL) at 25° C. pH 6.5.
Setting [9] is: aqueous buffer pH 4, 25° C., ditrifluoroacetate.
Where [10] appears, read: aqueous buffer pH 6.5, 25° C., ditrifluoroacetate.

Regarding `CNCC(=O)OCc1cccnc1N(C)C(=O)OC(C)[N+]1(CC(N)=O)CCC(c2ccc3[nH]c(-c4cn5ncnc5c(C)c4C)c(C(C)C)c3c2)CC1` (stereo not shown) [Example 14, 1-(2-Amino-2-oxoethyl)-4-(2-(7,8-dimethyl-[1,2,4]triazolo[1,5-a]pyridin-6-yl)-3-isopropyl-1H-indol-5-yl)-1-(1-((methyl(3-(((methylglycyl)oxy)methyl)pyridin-2-yl)carbamoyl)oxy)ethyl)piperidin-1-ium ditrifluoroacetate], the solubility in data set [1] (setting [3]) is more than 1.51 mg/mL; in data set [1] (setting [4]) it was more than 0.98 mg/mL. The half-life in data set [2] (setting [5]) was 179 h; in data set [2] (setting [6]), 85 h; in data set [2] (setting [7]) it was 1.6 h.

As for `Cc1c(-c2c(C(C)C)c3cc(C4CCN(CC(N)=O)CC4)ccc3n2C(=O)OC[C@@H]2CCCCN2)cn2ncnc2c1C` [Example 1, (S)-Piperidin-2-ylmethyl 5-(1-(2-amino-2-oxoethyl)piperidin-4-yl)-2-(7,8-dimethyl-[1,2,4]triazolo[1,5-a]pyridin-6-yl)-3-isopropyl-1H-indole-1-carboxylate], the solubility in data set [1] (setting [3]) was more than 1.74 mg/mL; in data set [1] (setting [4]), more than 1.28 mg/mL; in data set [1] (setting [8]), more than 1.34 mg/mL. For the same compound, the half-life in data set [2] (setting [5]) was more than 500 h; in data set [2] (setting [6]), more than 500 h; in data set [2] (setting [7]) it was 218 h.

Turning to `CNCC(=O)n1c(-c2cn3ncnc3c(C)c2C)c(C(C)C)c2cc(C3CCN(CC(N)=O)CC3)ccc21` [Example 5, 2-(4-(2-(7,8-Dimethyl-[1,2,4]triazolo[1,5-a]pyridin-6-yl)-3-isopropyl-1-(methylglycyl)-1H-indol-5-yl)piperidin-1-yl)acetamide ditrifluoroacetate], the solubility is more than 2.84 mg/mL in data set [1] (setting [3]), more than 2.15 mg/mL in data set [1] (setting [4]) and 1.19 mg/mL (≈ 2310 µM) in data set [1] (setting [8]). Moreover, the half-life in data set [2] (setting [5]) is more than 500 h; in data set [2] (setting [6]) it was 233 h; in data set [2] (setting [7]) it was 4.5 h.

Take `Cc1c(-c2c(C(C)C)c3cc(C4CCN(CC(N)=O)CC4)ccc3n2C(=O)OC(C)OC(=O)C2(N)CC2)cn2ncnc2c1C` (single isomer, unassigned) [Example 6, 1-((1-Aminocyclopropane-1-carbonyl)oxy)ethyl 5-(1-(2-amino-2-oxoethyl)piperidin-4-yl)-2-(7,8-dimethyl-[1,2,4]triazolo[1,5-a]pyridin-6-yl)-3-isopropyl-1H-indole-1-carboxylate ditrifluoroacetate]: the “Solubility (mg/mL) at 25° C. pH 4” value in data set [1] (setting [9]) was determined as 0.52 mg/mL. The “Solubility (mg/mL) at 25° C. pH 6.5” value in data set [1] (setting [10]) is given as more than 1.22 mg/mL. The solubility in data set [1] (setting [3]) was more than 1.32 mg/mL. Further, the half-life in data set [2] (setting [5]) is more than 500 h; in data set [2] (setting [6]), 415 h; in data set [2] (setting [7]), 108 h.

For `Cc1c(-c2c(C(C)C)c3cc(C4CCN(CC(N)=O)CC4)ccc3n2C(=O)OC[C@@H]2CCCN2C(=O)OCOP(=O)(O)O)cn2ncnc2c1C` [Example 4, (S)-(1-(((Phosphonooxy)methoxy)carbonyl)pyrrolidin-2-yl)methyl 5-(1-(2-amino-2-oxoethyl)piperidin-4-yl)-2-(7,8-dimethyl-[1,2,4]triazolo[1,5-a]pyridin-6-yl)-3-isopropyl-1H-indole-1-carboxylate], the solubility in data set [1] (setting [3]) is more than 1.64 mg/mL; in data set [1] (setting [4]) it was 0.91 mg/mL (≈ 1250 µM); in data set [1] (setting [8]) it was 0.66 mg/mL (≈ 909 µM). Besides, the results for the half-life in data set [2] (setting [5]), in data set [2] (setting [6]) and in data set [2] (setting [7]) were 231 h, 257 h and 231 h, respectively.

`Cc1c(-c2[nH]c3ccc(C4CCN(CC(N)=O)CC4)cc3c2C(C)C)cn2nc[n+](COC(=O)N(C)CCOP(=O)(O)O)c2c1C` (single isomer, unassigned) [Example 21, 6-(5-(1-(2-amino-2-oxoethyl)piperidin-4-yl)-3-isopropyl-1H-indol-2-yl)-7,8-dimethyl-1-(((methyl(2-(phosphonooxy)ethyl)carbamoyl)oxy)methyl)-[1,2,4]triazolo[1,5-a]pyridin-1-ium trifluoroacetate]: the results for the solubility in data set [1] (setting [3]), in data set [1] (setting [4]) and in data set [1] (setting [8]) were more than 1.75 mg/mL, 0.25 mg/mL and 0.55 mg/mL, respectively. Moreover, the half-life in data set [2] (setting [5]), in data set [2] (setting [6]) and in data set [2] (setting [7]) was more than 500 h in each case.

`Cc1c(-c2c(C(C)C)c3cc(C4CCN(CC(N)=O)CC4)ccc3n2C(=O)CN(C)C(=O)OCOP(=O)(O)O)cn2ncnc2c1C` [Example 19, (Phosphonooxy)methyl (2-(5-(1-(2-amino-2-oxoethyl)piperidin-4-yl)-2-(7,8-dimethyl-[1,2,4]triazolo[1,5-a]pyridin-6-yl)-3-isopropyl-1H-indol-1-yl)-2-oxoethyl)(methyl) carbamate]: the solubility in data set [1] (setting [3]) is more than 1.09 mg/mL; in data set [1] (setting [4]), 0.7 mg/mL (≈ 1050 µM); in data set [1] (setting [8]), more than 1.01 mg/mL. Besides, the values for the half-life in data set [2] (setting [5]), in data set [2] (setting [6]) and in data set [2] (setting [7]) were 157 h, 207 h and 65 h, respectively.

As for `Cc1c(-c2c(C(C)C)c3cc(C4CCN(CC(N)=O)CC4)ccc3n2C(=O)OC(C)OC(=O)C2(N)CC2)cn2ncnc2c1C` (single isomer, unassigned) [Example 7, 1-((1-Aminocyclopropane-1-carbonyl)oxy)ethyl 5-(1-(2-amino-2-oxoethyl)piperidin-4-yl)-2-(7,8-dimethyl-[1,2,4]triazolo[1,5-a]pyridin-6-yl)-3-isopropyl-1H-indole-1-carboxylate ditrifluoroacetate], the “Solubility (mg/mL) at 25° C. pH 1” value in data set [1] (aqueous buffer pH 1, 25° C., ditrifluoroacetate) is reported as more than 1.49 mg/mL. In data set [1] (setting [9]), the “Solubility (mg/mL) at 25° C. pH 4” value is more than 1.21 mg/mL. In addition, the “Solubility (mg/mL) at 25° C. pH 6.5” value in data set [1] (setting [10]) was 0.34 mg/mL. Further, the “Stability (t1/2, h) at 37° C. pH 1” value in data set [2] (pH 1 (0.1 M HCl)) was more than 500 h. Moreover, in data set [2] (pH 4 (acetate buffer), ditrifluoroacetate), the “Stability (t1/2, h) at 37° C. pH 4” value was more than 500 h. In data set [2] (pH 6.5 (phosphate buffer), ditrifluoroacetate), the “Stability (t1/2, h) at 37° C. pH 6.5” value is 193 h.

Regarding `Cc1c(-c2c(C(C)C)c3cc(C4CCN(CC(N)=O)CC4)ccc3n2C(=O)OC[C@@H]2CCCCN2C(=O)OCOP(=O)(O)O)cn2ncnc2c1C` [Example 2, (S)-(1-(((Phosphonooxy)methoxy)carbonyl)piperidin-2-yl)methyl 5-(1-(2-amino-2-oxoethyl)piperidin-4-yl)-2-(7,8-dimethyl-[1,2,4]triazolo[1,5-a]pyridin-6-yl)-3-isopropyl-1H-indole-1-carboxylate], the solubility in data set [1] (setting [3]) is more than 1.17 mg/mL; in data set [1] (setting [4]), 0.24 mg/mL (≈ 324 µM); in data set [1] (setting [8]), 0.43 mg/mL (≈ 581 µM). Also, the half-life is 248 h in data set [2] (setting [5]), 283 h in data set [2] (setting [6]) and 267 h in data set [2] (setting [7]).

As for `CNCCN(C)C(=O)OC[N+]1(CC(N)=O)CCC(c2ccc3[nH]c(-c4cn5ncnc5c(C)c4C)c(C(C)C)c3c2)CC1` (stereo not shown) [Example 23, 1-(2-Amino-2-oxoethyl)-4-(2-(7,8-dimethyl-[1,2,4]triazolo[1,5-a]pyridin-6-yl)-3-isopropyl-1H-indol-5-yl)-1-(((methyl(2-(methylamino)ethyl)carbamoyl)oxy)methyl) piperidin-1-ium trifluoroacetate], the solubility in data set [1] (setting [3]) was more than 0.82 mg/mL; in data set [1] (setting [4]), more than 0.85 mg/mL. In addition, the half-life in data set [2] (setting [5]) is more than 500 h; in data set [2] (setting [6]), 9.6 h; in data set [2] (setting [7]), 0.1 h.

For the compound `Cc1c(-c2c(C(C)C)c3cc(C4CCN(CC(N)=O)CC4)ccc3n2C(=O)CCCOP(=O)(O)O)cn2ncnc2c1C` [Example 10, 4-(5-(1-(2-Amino-2-oxoethyl)piperidin-4-yl)-2-(7,8-dimethyl-[1,2,4]triazolo[1,5-a]pyridin-6-yl)-3-isopropyl-1H-indol-1-yl)-4-oxobutyl dihydrogen phosphate], the solubility in data set [1] (setting [3]) is 0.43 mg/mL; in data set [1] (setting [4]), 0.1 mg/mL; in data set [1] (setting [8]) it was 0.12 mg/mL. Besides, the half-life is 347 h in data set [2] (setting [5]), more than 500 h in data set [2] (setting [6]) and more than 500 h in data set [2] (setting [7]).

For `CCOC(=O)n1c(-c2cn3ncnc3c(C)c2C)c(C(C)C)c2cc(C3CCN(CC(N)=O)CC3)ccc21` [Example 24, Ethyl 5-(1-(2-amino-2-oxoethyl)piperidin-4-yl)-2-(7,8-dimethyl-[1,2,4]triazolo[1,5-a]pyridin-6-yl)-3-isopropyl-1H-indole-1-carboxylate], the results for the solubility in data set [1] (setting [3]), in data set [1] (setting [4]) and in data set [1] (setting [8]) were more than 1.39 mg/mL, more than 2.93 mg/mL and 0.1 mg/mL (≈ 194 µM), respectively. The half-life in data set [2] (setting [5]), in data set [2] (setting [6]) and in data set [2] (setting [7]) was more than 500 h each time.
